Assay results from publication PMC4627284, “High-throughput simultaneous screen and counterscreen identifies homoharringtonine as synthetic lethal with von Hippel-Lindau loss in renal cell carcinoma” (Oncotarget, 2015).

Test system: VHL-deficient 786-O cells
Assay: High-throughput simultaneous screen and counterscreen, 1:1 mix of EV^GFP and VHL^mCh 786-O cells, fluorescence imaging
Format: cell-based, human
Settings: library at 5 μM, 48 hours, in the presence of 2 nM rapamycin
From the text: To identify small molecule compounds synthetic lethal with VHL, we carried out an unbiased cell-based screen of a chemical library of ~12,800 compounds using 786-O cells, an extensively studied cell line derived from a VHL-deficient primary human ccRCC [26]. 786-O cells were stably transfected with either an empty vector (EV) control or reconstituted with an HA-tagged VHL cDNA. […] To distinguish between the two otherwise isogenic cell lines, we transduced the VHL-deficient 786-O cells with a histone H2B-GFP reporter and the VHL-reconstituted cells with an H2B-mCherry reporter. The histone proteins drive the fluorochrome to nuclei facilitating cell identification and segmentation algorithms (Figure 1A and 1B). […]
Figure 1 Screening strategy to identify compounds that are synthetic lethal with VHL A. Schematic diagram of a ~12,800 chemical library synthetic lethal screen. […] Fluorescence imaging (using the BD Pathway 855 imager) was used to identify compounds preferentially depleting VHL-deficient/GFP-positive cells after cells were segmented. B. Left panel: Representative image of fluorescence signal from Hoescht-labeled 786-O cells. Right panel: overlay of GFP fluorescence signal (green; from 786-O EV^GFP cells) and mCherry fluorescence nuclear signal (red; VHL^mCh cells). […] Toxicity was determined as ≤100 VHL^mCh cells per field. […]

`COC(=O)C[C@](O)(CCCC(C)(C)O)C(=O)O[C@@H]1C(OC)=C[C@]23CCCN2CCc2cc4c(cc2[C@H]13)OCO4` [HHT, homoharringtonine] was tested, and the “synthetic lethality with VHL in the screen” value was “synthetic lethal compound effective against VHL-deficient ccRCC cells”.
